Measurements published in patent publication US10478501B2, “Method of treating disorders using a pharmaceutical composition of oligopeptides” (Merck Patent GmbH, priority 2011, dated 2019).

Tests used:
H1299 [1] = test: Cellular radiosensitivity by clonogenic cell survival assay, H1299; format: cell-based, human; settings: combined with γ-radiation, given 1 h before and continued 23 h after irradiation
Procedure: (§1) Methods: Three non-small cell lung carcinoma lines (NSCLCs) (H460, A549 and H1299) and three head and neck squamous cell carcinoma lines (HNSCCs) (FaDu, SCC-15 and SCC-25) cell lines were used for in vitro experiments. Of these, H460 and FaDu were used for in vivo testing when grown as xenografts in nude mice. The effects of cilengitide (1-50 μg/ml, 24 h) on in vitro cell viability was determined by MTS assay and on cellular radiosensitivity by clonogenic cell survival assay after exposing the cells to graded single doses of γ-radiation with or without cilengitide (given 1 h before and continued for 23 h after irradiation). In vivo effect of cilengitide on radioresponse of xenografts was assessed by tumor growth delay. When tumor xenografts reached 7 mm in diameter cilengitide treatment (30 or 60 mg/d/5 or 10 days) was initiated followed by a single dose of 15 Gy local radiation (using ^137Cs γ-ray source), when the tumors reached 8 mm.

[2] = system: HNSCC lines (FaDu, SCC-15 and SCC-25); test: Cellular radiosensitivity by clonogenic cell survival assay, HNSCC lines; format: cell-based, human; settings: combined with γ-radiation
Procedure: as §1

[3] = system: MDA-MB468 human breast tumour cells; test: Study 007: MDA-MB-468 primary tumor growth; format: in vivo, female BALB/c nu/nu mice; settings: all three dosing groups (75, 150 or 300 mg/kg) daily s.c., composition according to Example 18; Vehicle Control higher than 350 mm^3
Procedure: MDA-MB468 human breast tumour cells were orthotopically inoculated into the third mammary fat pad of female BALB/c nu/nu mice. The mice were randomised into groups when the tumors reached a size of approximately 40 mm^3.
The mice in each group received treatment with either Vehicle Control (Placebo) or EMD 121974 (75, 150 or 300 mg/kg as a Composition according to Example 18) by daily subcutaneous injection. Body weight and tumour volume measurements were made for all mice three times per week.

H1299 [4] = test: In vitro cell viability by MTS assay, H1299; format: cell-based, human; settings: 5 μg/ml, 24 h
Procedure: as §1

[5] = system: MDA-MB-231 breast cancer bone metastases; test: Experimental breast cancer bone metastases in nude rats: DCE-MRI parameters amplitude A and kep; format: in vivo, nude rats (RNU strain)
Procedure: Nude rats (RNU strain) are obtained from Harlan-Winkelmann GmbH (Borchen, Germany) at the age of six weeks and housed in a specific pathogen-free environment in a mini barrier system of the central animal facility. Animals are kept under controlled conditions (21±2° C. room temperature, 60% humidity, 12 h light-dark rhythm) and offered autoclaved food and water ad libitum. Sub-confluent MDAMB-231 cells are harvested using 0.05% Trypsin-EDTA (Gibco®; Invitrogen, Karlsruhe, Germany) counted on a Neubauer's chamber and resuspended in RPMI-1640 to a final concentration of 10^5 cells in 200 μl. Rats are anesthetized using a mixture of nitrous oxide (1 l/min), oxygen (0.5 l/min) and isoflurane (1.5 vol. %). Arterial branches of the right hind leg are dissected and 10^5 cells injected into the superficial epigastric artery as described previously.^28 Bone metastases established and are observed exclusively in the femur, tibia and fibula of the right hind leg. 30 days after cancer cell transplantation, rats (n=24) are randomly divided into two groups, one group receiving the cyclic RGD-peptide inhibitor of αvβ3/αvβ5 integrins (cilengitide, EMD 121974^14, 17, 29; Merck, Darmstadt, Germany) intraperitoneally five times per week (75 mg/kg; n=12 rats) and the other, sham-treated group, serving as a control (n=12 rats). The observation period of all animals is 55 days and no rat in the study dies ahead of schedule.
After the inoculation of cancer cells each rat is imaged at days 30, 35, 45 and 55 using (i) a flat-panel equipped volumetric computed tomograph (Volume CT, Siemens, Germany) and (ii) a 1.5T clinical magnetic resonance scanner (Symphony, Siemens, Erlangen, Germany) equipped with a home-built receive-transmit coil (cylindrical volume resonator with an inner diameter of 83 mm and a usable length of 120 mm). Prior to in vivo imaging with VCT and MRI, rats are anesthetized with nitrous oxide, oxygen and isoflurane as described above.
T2-weighted imaging is performed using a turbo spin echo sequence (orientation axial, TR 3240 ms, TE 81 ms, matrix 152×256, FOV 90×53.4 mm^2, slice thickness 1.5 mm, 3 averages, scan time 3 min 40 s). For dynamic contrast-enhanced MRI, a saturation recovery turbo flash sequence through the largest diameter of the tumor (orientation axial, TR 373 ms, TE 1.86 ms, matrix 192×144, FOV 130×97.5 mm, slice thickness 5 mm, measurements 512, averages 1, scan time 6 min 55 s) is used. After 20 s baseline, 0.1 mmol/kg Gd-DTPA (Magnevist; Bayer Schering Pharma, Berlin, Germany) is intravenously infused for a time period of 10 s.
Unenhanced VCT images and MRI-acquired T2-weighted images are analyzed using the Medical Imaging Interaction Toolkit (MITK, Heidelberg, Germany) to determine volumes of osteolytic lesions and soft tissue components, respectively. DCE-MRI acquired data is analyzed using the Dynalab workstation (Mevis Research, Bremen, Germany) according to the two-compartment model of Brix to determine the parameters amplitude A and exchange rate constant kep, as described.^23, 30 Briefly, the injected contrast media is distributed in both compartments (intravascular space and extravascular, interstitial space). The accumulation of contrast agent in these compartments over time is characterized by the amplitude A (associated with blood volume), whereas the exchange of contrast agent between the intravascular space and the interstitial space is characterized by the exchange rate constant kep (associated with vessel permeability). For determination of the respective values of the amplitude A and kep of bone metastases in our study, a region of interest is placed around the soft tissue component on color maps for A and kep, respectively, using the Dynalab workstation (Mevis Research, Bremen, Germany). […]

[6] = system: H460 (NSCLC) tumor xenografts; test: Tumor growth delay of H460 xenografts with radiation; format: in vivo, nude mice
Procedure: as §1

[7] = system: BT474 human breast cancer cells; test: Her2+ breast cancer model BT474, Cilengitide in combination with Herceptin; format: in vivo, Balbc nu/nu mice; settings: 300 mg/kg Cilengitide s.c. daily
Source text: BT474 human breast cancer cells were subcutaneously injected into Balbc nu/nu mice. The mice were randomized into different treatment groups when the tumors reached a mean tumor volume of approximately 125 mm^3.

Question: Which radiosensitivity enhancement factor (H1299 [1]) does the source give for `CC(C)[C@H]1C(=O)N[C@@H](CCCN=C(N)N)C(=O)NCC(=O)N[C@@H](CC(=O)O)C(=O)N[C@H](Cc2ccccc2)C(=O)N1C` [Cilengitide, cyclo-(Arg-Gly-Asp-DPhe-NMeVal)] here?
Answer: The radiosensitivity enhancement factor was 1.3.

Question: What about the “effect on radiosensitivity of HNSCC lines” value [2] of the same compound?
Answer: Its value is “only an additive effect”.

Question: What about the “tumour volume on day 60” value [3] of the same compound?
Answer: Its value is “below 200 mm^3”.

Question: What about the in vitro viability (H1299 [4]) of the same compound?
Answer: The in vitro viability was 27.8±4.2%.

Question: What about the “DCE-MRI parameter exchange rate constant kep, mean relative value” ([5]; day 35 (controls 86%; p>0.05)) of the same compound?
Answer: The value was 69 % of initial value.

Question: What about the “DCE-MRI parameter amplitude A, mean relative value” ([5]; day 35 post inoculation (controls 106%; p>0.05)) of the same compound?
Answer: Its value is 97 % of initial value.

Question: What about the “DCE-MRI parameter exchange rate constant kep, mean relative value” ([5]; day 45 (controls 63%; p>0.05)) of the same compound?
Answer: The value was 88 % of initial value.

Question: And the “DCE-MRI parameter amplitude A, mean relative value” ([5]; day 45 (controls 125%; p<0.05))?
Answer: Its value is 102 % of initial value.

Question: And the “DCE-MRI parameter exchange rate constant kep, mean relative value” ([5]; day 55 (controls 40%; p<0.05))?
Answer: Its value is 72 % of initial value.

Question: And the “DCE-MRI parameter amplitude A, mean relative value” ([5]; day 55 (controls 105%; p<0.05))?
Answer: Its value is 93 % of initial value.

Question: And the “enhancement factor of tumor radioresponse (tumor growth delay)” value ([6]; with single dose of 15 Gy local radiation)?
Answer: The value was 1.7.

Question: And the “antitumor activity as a single agent (tumor growth delay)” value ([6]; without radiation)?
Answer: Its value is “no antitumor activity”.

Question: What about the “tumor growth of Her2+ BT474 tumors under monotherapy” value [7] of the same compound?
Answer: The value was “did not inhibit the tumor growth”.
